Source: PubChem BioAssay (NCI)
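Values below derive from 48-hour exposures of cells grown in 96-well plates, with endpoints linearly interpolated between the two concentrations bracketing the appropriate inhibition level. TGI denotes the concentration required for complete inhibition of growth.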

Assays:
Test in all cases: NCI-60 cell line screen, 48 h
SNB-78 CNS = tested on: SNB-78 CNS
MOLT-4 leukemia = tested on: MOLT-4 leukemia
HOP-62 NSCLC = tested on: HOP-62 NSCLC
DMS 114 small cell lung = tested on: DMS 114 small cell lung
CCRF-CEM leukemia = tested on: CCRF-CEM leukemia
OVCAR-5 ovarian = tested on: OVCAR-5 ovarian
HOP-18 NSCLC = tested on: HOP-18 NSCLC
HOP-92 NSCLC = tested on: HOP-92 NSCLC
SNB-19 CNS = tested on: SNB-19 CNS
NCI-H460 lung = tested on: NCI-H460 lung
KM20L2 colon = tested on: KM20L2 colon
HT29 colon = tested on: HT29 colon
K-562 leukemia = tested on: K-562 leukemia
COLO 205 colon = tested on: COLO 205 colon
KM12 colon = tested on: KM12 colon
XF 498 CNS = tested on: XF 498 CNS
SW-620 colon = tested on: SW-620 colon
TK-10 renal = tested on: TK-10 renal
IGROV1 ovarian = tested on: IGROV1 ovarian
LOX IMVI melanoma = tested on: LOX IMVI melanoma
RPMI-8226 leukemia = tested on: RPMI-8226 leukemia
MALME-3M melanoma = tested on: MALME-3M melanoma
SK-OV-3 ovarian = tested on: SK-OV-3 ovarian
LXFL 529 NSCLC = tested on: LXFL 529 NSCLC
HCT-15 colon = tested on: HCT-15 colon
CAKI-1 renal = tested on: CAKI-1 renal
HL-60(TB) leukemia = tested on: HL-60(TB) leukemia
UACC-62 melanoma = tested on: UACC-62 melanoma
SF-295 CNS = tested on: SF-295 CNS
NCI-H226 lung = tested on: NCI-H226 lung
NCI-H23 lung = tested on: NCI-H23 lung
786-0 renal = tested on: 786-0 renal
UO-31 renal = tested on: UO-31 renal
NCI-H522 lung = tested on: NCI-H522 lung
SF-539 CNS = tested on: SF-539 CNS
SK-MEL-2 melanoma = tested on: SK-MEL-2 melanoma
SR leukemia = tested on: SR leukemia
U251 CNS = tested on: U251 CNS
OVCAR-3 ovarian = tested on: OVCAR-3 ovarian
DLD-1 colon = tested on: DLD-1 colon
DMS 273 small cell lung = tested on: DMS 273 small cell lung
M14 melanoma = tested on: M14 melanoma
A549 NSCLC = tested on: A549 NSCLC
OVCAR-4 ovarian = tested on: OVCAR-4 ovarian
EKVX NSCLC = tested on: EKVX NSCLC
ACHN renal = tested on: ACHN renal
SN12C renal = tested on: SN12C renal
HCT-116 colon = tested on: HCT-116 colon
RXF 393 renal = tested on: RXF 393 renal
HCC-2998 colon = tested on: HCC-2998 colon
SNB-75 CNS = tested on: SNB-75 CNS
SF-268 CNS = tested on: SF-268 CNS
SK-MEL-5 melanoma = tested on: SK-MEL-5 melanoma
M19-MEL melanoma = tested on: M19-MEL melanoma
UACC-257 melanoma = tested on: UACC-257 melanoma
SK-MEL-28 melanoma = tested on: SK-MEL-28 melanoma
OVCAR-8 ovarian = tested on: OVCAR-8 ovarian
A498 renal = tested on: A498 renal

Measured: TGI

C=C(Nc1ccc(OC)cc1OC)C(=O)Cc1cccc[n+]1[O-]
> 100 µM: all assays above
